Reference: patent US20220227745A1, “Compounds For Modulating FXR” (NANJING RUIJIE PHARMA TECH CO., LTD., priority 2019, published 2022)

Tests used:
FXR LBD, GST = target: T1, FXR LBD, GST (Homo sapiens, UniProt Q96RI1); experiment: FXR Binding Assay (TR-FRET, Fluorescein-SRC2-2 coactivator peptide); settings: for Emax: % Activity relative to positive control, read-out: Pct Effect (Emax %); for EC50: TR-FRET FXR LBD coactivator recruitment
T1 construct: FXR LBD, GST; purchased Invitrogen PV4834
T1 sequence (Q96RI1 262-486 limits assumed): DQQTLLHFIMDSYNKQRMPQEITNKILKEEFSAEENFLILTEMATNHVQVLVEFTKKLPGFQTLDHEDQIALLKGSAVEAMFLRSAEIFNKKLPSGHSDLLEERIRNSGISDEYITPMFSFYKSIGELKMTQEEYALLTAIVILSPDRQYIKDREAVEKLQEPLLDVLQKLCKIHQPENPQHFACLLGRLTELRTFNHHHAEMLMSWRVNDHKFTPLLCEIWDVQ
Experimental: The interaction between the present compounds and FXR are evaluated by Time-Resolved Fluorescence Resonance Energy Transfer (TR-FRET) competition assay. FRET describes a radiation-free energy transfer between two chromophores: a donor fluorophore in its excited state can transfer energy to an acceptor fluorophore in close proximity (typically <10 nm). In contrast to standard FRET, TR-FRET unites time-resolved fluorescence (TRF) and the FRET principle, TRF use a long-lifetime lanthanide chelate as the donor species, while lanthanide chelates are unique in that their excited-state lifetime can be on the order of a millisecond or longer. Suitable neighbors for FRET are known in the art and can be obtained.
The assay was performed in following steps: first, prepared a) 1 mM compounds (100×) in DMSO; b) reaction buffer containing 1× buffer G with 10 mM DTT; c) 4×FXR LBD (20 nM) in 1× chilled buffer G. Second, performed 3-fold serial dilution of 1 mM test compounds using DMSO from 1 mM, 10 doses in a 96-well plate (249944, Nunc). Then, used complete buffer G to dilute each 100× compounds serial dilution to 2×. Third, added 10 μl 2× compound serial dilution into 384-well plate (3677, Corning). Then, added 5 μl FXR LBD into the assay plate. Prepared a solution containing 2 μM fluorescein-SRC2-2 (4×) and 20 nM Tb anti-GST antibody (4×) in buffer G at room temperature and started the reaction by adding 5 μl the above solution into each well of the assay plate. Centrifuged the assay plates at 1000 g for 1 min and then incubated at room temperature for lhr protected from light. Finally, the plate was read at wavelengths of 520 nm and 495 nm on Envision 2104 plate reader (PerkinElmer).
A ratio (Ratio520 nm/495 nm−Ratiobackground) was calculated for each well. The activity ratio was calculated as follow: […]
Ratiopositive: The average ratio for the positive control across the plate.
Ratiovehicle: The average ratio for negative controls across the plate.
(§1) EC50 was calculated by fitting % Activity values and log of compound concentrations to nonlinear regression (dose response-variable slope) with GraphPad 5.0.
(§2) X: log of compound concentration.

[1] = target: T2, hFXR-LBD (FXR-GAL4 chimeric receptor) (Homo sapiens, UniProt Q96RI1); experiment: FXR Transactivation Assay (GAL4 luciferase reporter in HEK293T cells); format: cell-based
T2 construct: host or cells: HEK293T
T2 sequence (Q96RI1 262-486 limits assumed): T1 sequence (Q96RI1 262-486 limits assumed)
Experimental: FXR Transactivation Assay
The present compounds were tested to assess their ability to stimulate FXR transactivation activity. The hFXR-LBD, coding sequence was inserted into the pBIND expression vector (Promega, E1581) to express FXR-GAL4 binding domain chimeric receptors. This expression vector and reporter vector (pGL4.35 which carry a stably integrated GAL4 promoter driven luciferase reporter gene) were co-transfected into HEK293T host cells. Upon agonist binding to the corresponding FXR-GAL4 chimeric receptor, the chimeric receptor binds to the GAL4 binding sites and stimulates the reporter gene.
All the working stock were shake for 5 min on plate shaker (QILINBEIER). Second, all cells were cultured as ATCC recommended. HEK293T cells were assayed in exponential growth phase. Removed culture medium from the flask and rinsed cells with PBS. Added TrypLE solution to the flask and make cells detach. Next, cells were washed once with complete growth medium. Then, cells were pelleted and washed twice with PBS to remove phenol red and resuspend them in medium to a proper concentration. Only cells with viability greater than 90% were used for assays. Seeded 6×10^6 HEK293T cells into a 100 mm dish and incubated at 37° C. under 5% CO2 atmosphere for 16 h. Third, Trans-IT reagent and Opti-MEM mix by inversion and incubate 5 min at room temperature. The cell transfection was performed by mixing DNA and the reagent mixture, as well as 6 μg GAL4-FXR plasmid or 2 μg pGL4.35 luciferase plasmid, respectively. The reagent mixture was added to a 100 mm dish and incubated for 4-7 hrs at 37° C. under 5% CO2 atmosphere. Fourth, transferred 75 nl compound dilutions into 384-well assay plates (PerkinElmer) and seeded HEK293T cells at 17,000 cells/well using phenol red-free DMEM containing 5% charcoal/dextran-treated FBS. Then, cells were incubated for 16-20 h at 37° C. under 5% CO2 atmosphere. Finally, added 25 μl Steady-Glo™ Luciferase Assay Reagent into each well of 384-well assay plate, and then shake plate for 5 min protected from light on a plate shaker. Then, the luminescence value was read on Evision 2104 plate reader (PerkinElmer).
The activity ratio was calculated as follow: […]
RLU: Resulting Luminescence
RLUpositive: The average RLU for the positive controls across the plate.
RLUvehicle: The average RLU for negative controls across the plate.
as §1, §2

| Compound | Emax (FXR LBD, GST) [%] | EC50 (FXR LBD, GST) [nM] | EC50 [1] [nM] |
| --- | --- | --- | --- |
| Cn1cc(C(=O)O)c2ccc(N3CCN(CCc4c(-c5c(Cl)cccc5Cl)noc4C4CC4)CC3)cc21 [Example I1, 6-(4-(2-(5-cyclopropyl-3-(2,6-dichlorophenyl)isoxazol-4-yl)ethyl)piperazin-1-yl)-1-methyl-1H-indole-3-carboxylic Acid] | 161 | 58 | 101 |
| Cn1cc(C(=O)O)c2ccc(N3CCN(C(=O)Cc4c(-c5c(Cl)cccc5Cl)noc4C4CC4)CC3)cc21 [Example I2, 6-(4-(2-(5-cyclopropyl-3-(2,6-dichlorophenyl)isoxazol-4-yl)acetyl)piperazin-1-yl)-1-methyl-1H-indole-3-carboxylic Acid] | 75.1 | 5110 | 11100 |
| CC(C)c1onc(-c2c(Cl)cccc2Cl)c1CCN1CCN(c2ccc3c(C(=O)O)cn(C)c3c2)CC1 [Example I3, 6-(4-(2-(3-(2,6-dichlorophenyl)-5-isopropylisoxazol-4-yl)ethyl)piperazin-1-yl)-1-methyl-1H-indole-3-carboxylic Acid] | 192 | 91 | 239 |
| O=C(O)c1ccc2nc(N3CCN(CCc4c(-c5c(Cl)cccc5Cl)noc4C4CC4)CC3)sc2c1 [Example I4, 2-(4-(2-(5-cyclopropyl-3-(2,6-dichlorophenyl)isoxazol-4-yl)ethyl)piperazin-1-yl)benzo[d]thiazole-6-carboxylic Acid] | 89.8 | 244 | 1500 |
| O=C(O)c1cc(F)c2nc(N3CCN(CCc4c(-c5ccccc5OC(F)(F)F)noc4C4CC4)CC3)sc2c1 [Example I5, 2-(4-(2-(5-cyclopropyl-3-(2-(trifluoromethoxy)phenyl)isoxazol-4-yl)ethyl)piperazin-1-yl)-4-fluorobenzo[d]thiazole-6-carboxylic Acid] | 116 | 297 | 2380 |
| O=C(O)c1ccc2cc(N3CCN(CCc4c(-c5c(Cl)cccc5Cl)noc4C4CC4)CC3)ccc2n1 [Example I6, 6-(4-(2-(5-cyclopropyl-3-(2,6-dichlorophenyl)isoxazol-4-yl)ethyl)piperazin-1-yl)quinoline-2-carboxylic Acid] | 142 | 118 | 459 |
| Cn1cc(C(=O)O)c2ccc(N3CCCN(CCc4c(-c5c(Cl)cccc5Cl)noc4C4CC4)CC3)cc21 [Example I7, 6-(4-(2-(5-cyclopropyl-3-(2,6-dichlorophenyl)isoxazol-4-yl)ethyl)-1,4-diazepan-1-yl)-1-methyl-1H-indole-3-carboxylic Acid] | 98.1 | 25 | 743 |
| CC1CN(c2ccc3c(C(=O)O)cn(C)c3c2)CCN1CCc1c(-c2c(Cl)cccc2Cl)noc1C1CC1 (stereo not shown) [Example I8, 6-(4-(2-(5-cyclopropyl-3-(2,6-dichlorophenyl)isoxazol-4-yl)ethyl)-3-methylpiperazin-1-yl)-1-methyl-1H-indole-3-carboxylic Acid] | 202 | 94 | 138 |
| Cn1cc(C(=O)O)c2ccc(N3CCN(CCc4c(-c5c(F)cccc5Cl)noc4C4CC4)CC3)cc21 [Example I10, 6-(4-(2-(3-(2-chloro-6-fluorophenyl)-5-cyclopropylisoxazol-4-yl)ethyl)piperazin-1-yl)-1-methyl-1H-indole-3-carboxylic Acid] | 173 | 728 | 524 |
| CC1CN(CCc2c(-c3c(Cl)cccc3Cl)noc2C2CC2)CCN1c1ccc2c(C(=O)O)cn(C)c2c1 (stereo not shown) [Example I12, 6-(4-(2-(5-cyclopropyl-3-(2,6-dichlorophenyl)isoxazol-4-yl)ethyl)-2-methylpiperazin-1-yl)-1-methyl-1H-indole-3-carboxylic Acid] | 147 | 133 | 129 |
| O=C(O)c1ccc(N2CCN(CCc3c(-c4c(Cl)cccc4Cl)noc3C3CC3)CC2)cc1 [Example I14, 4-(4-(2-(5-cyclopropyl-3-(2,6-dichlorophenyl)isoxazol-4-yl)ethyl)piperazin-1-yl)benzoic Acid] | 142 | 655 | 912 |
| O=C(O)c1c[nH]c2cc(N3CCN(CCc4c(-c5c(Cl)cccc5Cl)noc4C4CC4)CC3)ccc12 [Example I15, 6-(4-(2-(5-cyclopropyl-3-(2,6-dichlorophenyl)isoxazol-4-yl)ethyl)piperazin-1-yl)-1H-indole-3-carboxylic Acid] | 168 | 419 | 667 |
| Cn1nc(C(=O)O)c2ccc(N3CCN(CCc4c(-c5c(Cl)cccc5Cl)noc4C4CC4)CC3)cc21 [Example I17, 6-(4-(2-(5-cyclopropyl-3-(2,6-dichlorophenyl)isoxazol-4-yl)ethyl)piperazin-1-yl)-1-methyl-1H-indazole-3-carboxylic Acid] | 131 | 46 | 1230 |
| Cn1nc2cc(N3CCN(CCc4c(-c5c(Cl)cccc5Cl)noc4C4CC4)CC3)ccc2c1C(=O)O [Example I18, 6-(4-(2-(5-cyclopropyl-3-(2,6-dichlorophenyl)isoxazol-4-yl)ethyl)piperazin-1-yl)-2-methyl-2H-indazole-3-carboxylic Acid] | 142 | 46 | 436 |
| Cn1cc(C(=O)O)c2ccc(N3CCN(CCc4c(-c5ccccc5OC(F)(F)F)noc4C4CC4)CC3)cc21 [Example I20, 6-(4-(2-(5-cyclopropyl-3-(2-(trifluoromethoxy)phenyl)isoxazol-4-yl)ethyl)piperazin-1-yl)-1-methyl-1H-indole-3-carboxylic Acid] | 193 | 450 | 906 |
| COc1cccc(Cl)c1-c1noc(C2CC2)c1CCN1CCN(c2ccc3c(C(=O)O)cn(C)c3c2)CC1 [Example I21, 6-(4-(2-(3-(2-chloro-6-methoxyphenyl)-5-cyclopropylisoxazol-4-yl)ethyl)piperazin-1-yl)-1-methyl-1H-indole-3-carboxylic Acid] | 85.1 | 890 | 2860 |
| Cc1cccc(Cl)c1-c1noc(C2CC2)c1CCN1CCN(c2ccc3c(C(=O)O)cn(C)c3c2)CC1 [Example I22, 6-(4-(2-(3-(2-chloro-6-methylphenyl)-5-cyclopropylisoxazol-4-yl)ethyl)piperazin-1-yl)-1-methyl-1H-indole-3-carboxylic Acid] | 163 | 162 | 634 |
| O=C(O)c1ccc2nc(N3CC4CC(C3)C4OCc3c(-c4c(Cl)cccc4Cl)noc3C3CC3)sc2c1 (stereo not shown) [Example I67, 2-(6-((5-cyclopropyl-3-(2,6-dichlorophenyl)isoxazol-4-yl)methoxy)-3-azabicyclo[3.1.1]heptan-3-yl)benzo[d]thiazole-6-carboxylic Acid] |  | > 10000 |  |
